In patent publication US10426758B2, “Sibiriline derivatives for use for preventing and/or treating disorders associated with cellular necroptosis” (Institut National de la Sante et de la Recherche Medicale …, priority 2015, dated 2019):

Assays:
Assay in all cases: Competition binding assay for kinase targets of Sib (456 kinases)
Details in all cases: remaining kinase on the matrix after competition, read-out: Percent Control (%)
[1] = target: ABL1(H396P)-nonphosphorylated (Homo sapiens, UniProt P00519, H396P)
Method: (§1) The assay is performed by combining three components: DNA-tagged kinase (a total of 456 kinases were tested); immobilized ligand; and a test compound (here Sib). The ability of Sib to compete with the immobilized ligand is measured via quantitative PCR of the DNA tag.

AURKC = target: T1, AURKC (Homo sapiens, UniProt Q9UQB9)
T1 sequence (Q9UQB9 1-309): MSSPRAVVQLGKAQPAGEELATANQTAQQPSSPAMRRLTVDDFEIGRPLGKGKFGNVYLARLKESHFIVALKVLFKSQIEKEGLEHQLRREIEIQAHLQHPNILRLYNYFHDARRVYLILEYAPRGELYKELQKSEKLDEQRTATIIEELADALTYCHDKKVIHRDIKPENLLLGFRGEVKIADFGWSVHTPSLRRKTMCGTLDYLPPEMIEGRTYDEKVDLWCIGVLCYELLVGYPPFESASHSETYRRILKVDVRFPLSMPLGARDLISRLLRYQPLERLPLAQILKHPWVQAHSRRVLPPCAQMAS
Method: as §1

DRAK2 = target: T2, DRAK2 (Homo sapiens, UniProt O94768)
T2 sequence (O94768 1-372): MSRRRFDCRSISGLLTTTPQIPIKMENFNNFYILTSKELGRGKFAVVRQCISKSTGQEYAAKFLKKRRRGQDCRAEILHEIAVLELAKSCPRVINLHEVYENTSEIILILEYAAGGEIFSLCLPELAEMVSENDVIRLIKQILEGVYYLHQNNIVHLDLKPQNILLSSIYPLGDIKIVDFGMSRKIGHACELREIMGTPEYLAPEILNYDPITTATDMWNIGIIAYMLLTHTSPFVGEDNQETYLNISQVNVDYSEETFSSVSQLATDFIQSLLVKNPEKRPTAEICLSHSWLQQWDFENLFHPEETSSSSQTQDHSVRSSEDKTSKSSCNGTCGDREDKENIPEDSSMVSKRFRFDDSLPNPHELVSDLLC
Method: as §1

EPHB6 = target: T3, EPHB6 (Homo sapiens, UniProt O15197)
T3 sequence (O15197 32-1021): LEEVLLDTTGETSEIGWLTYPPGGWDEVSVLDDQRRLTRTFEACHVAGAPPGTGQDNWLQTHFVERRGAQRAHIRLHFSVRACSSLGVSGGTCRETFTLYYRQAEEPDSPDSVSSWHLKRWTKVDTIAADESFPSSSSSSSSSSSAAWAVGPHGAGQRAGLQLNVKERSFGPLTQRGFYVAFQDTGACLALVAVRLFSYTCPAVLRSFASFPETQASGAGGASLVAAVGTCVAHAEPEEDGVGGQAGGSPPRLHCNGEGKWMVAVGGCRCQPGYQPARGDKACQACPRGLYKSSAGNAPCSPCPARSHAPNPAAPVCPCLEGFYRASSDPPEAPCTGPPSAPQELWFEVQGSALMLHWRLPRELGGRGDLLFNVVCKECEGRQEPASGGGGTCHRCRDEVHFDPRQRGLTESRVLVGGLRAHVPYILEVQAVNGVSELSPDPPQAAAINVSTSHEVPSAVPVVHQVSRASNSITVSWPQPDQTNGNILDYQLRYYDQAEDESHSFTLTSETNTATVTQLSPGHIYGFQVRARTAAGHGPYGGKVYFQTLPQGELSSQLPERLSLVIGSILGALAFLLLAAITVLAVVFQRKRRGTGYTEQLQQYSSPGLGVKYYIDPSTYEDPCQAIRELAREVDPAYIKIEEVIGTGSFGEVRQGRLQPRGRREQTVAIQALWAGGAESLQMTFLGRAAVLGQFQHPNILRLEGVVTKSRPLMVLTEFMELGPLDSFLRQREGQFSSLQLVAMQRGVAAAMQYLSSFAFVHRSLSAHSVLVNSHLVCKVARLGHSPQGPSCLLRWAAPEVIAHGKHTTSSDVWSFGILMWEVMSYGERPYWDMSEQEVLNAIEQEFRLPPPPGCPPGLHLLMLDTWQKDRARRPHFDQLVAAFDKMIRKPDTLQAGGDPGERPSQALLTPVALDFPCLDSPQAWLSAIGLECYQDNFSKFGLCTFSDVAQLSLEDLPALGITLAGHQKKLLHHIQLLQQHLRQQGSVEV
Method: as §1

KIT(V559D) = KIT(V559D) (Homo sapiens, UniProt P10721, V559D)
Method: as §1

RIPK1 = target: T4, RIPK1 (Homo sapiens, UniProt Q13546)
T4 construct: purchased DiscoveRx Corporation (KdELECT service)
T4 sequence (Q13546 1-671): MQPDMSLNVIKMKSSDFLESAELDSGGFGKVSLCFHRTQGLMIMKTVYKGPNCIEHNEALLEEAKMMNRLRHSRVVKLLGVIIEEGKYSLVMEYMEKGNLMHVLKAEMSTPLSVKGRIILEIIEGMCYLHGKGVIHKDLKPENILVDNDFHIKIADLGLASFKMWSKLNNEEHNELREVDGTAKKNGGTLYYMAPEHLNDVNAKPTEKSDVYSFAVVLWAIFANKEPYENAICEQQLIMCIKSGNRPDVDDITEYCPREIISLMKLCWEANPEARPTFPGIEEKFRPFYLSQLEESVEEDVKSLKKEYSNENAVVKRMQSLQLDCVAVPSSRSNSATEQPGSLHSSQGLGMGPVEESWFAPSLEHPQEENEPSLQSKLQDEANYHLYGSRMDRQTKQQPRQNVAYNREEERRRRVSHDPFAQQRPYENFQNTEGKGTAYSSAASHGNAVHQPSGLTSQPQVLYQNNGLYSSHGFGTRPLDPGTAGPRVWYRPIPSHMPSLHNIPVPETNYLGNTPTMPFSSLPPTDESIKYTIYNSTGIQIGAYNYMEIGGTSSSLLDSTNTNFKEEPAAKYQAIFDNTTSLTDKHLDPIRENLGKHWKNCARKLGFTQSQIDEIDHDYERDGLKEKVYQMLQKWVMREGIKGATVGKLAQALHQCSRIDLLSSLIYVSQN
Method: as §1

Sequence of KIT(V559D) (P10721 26-976 V559D): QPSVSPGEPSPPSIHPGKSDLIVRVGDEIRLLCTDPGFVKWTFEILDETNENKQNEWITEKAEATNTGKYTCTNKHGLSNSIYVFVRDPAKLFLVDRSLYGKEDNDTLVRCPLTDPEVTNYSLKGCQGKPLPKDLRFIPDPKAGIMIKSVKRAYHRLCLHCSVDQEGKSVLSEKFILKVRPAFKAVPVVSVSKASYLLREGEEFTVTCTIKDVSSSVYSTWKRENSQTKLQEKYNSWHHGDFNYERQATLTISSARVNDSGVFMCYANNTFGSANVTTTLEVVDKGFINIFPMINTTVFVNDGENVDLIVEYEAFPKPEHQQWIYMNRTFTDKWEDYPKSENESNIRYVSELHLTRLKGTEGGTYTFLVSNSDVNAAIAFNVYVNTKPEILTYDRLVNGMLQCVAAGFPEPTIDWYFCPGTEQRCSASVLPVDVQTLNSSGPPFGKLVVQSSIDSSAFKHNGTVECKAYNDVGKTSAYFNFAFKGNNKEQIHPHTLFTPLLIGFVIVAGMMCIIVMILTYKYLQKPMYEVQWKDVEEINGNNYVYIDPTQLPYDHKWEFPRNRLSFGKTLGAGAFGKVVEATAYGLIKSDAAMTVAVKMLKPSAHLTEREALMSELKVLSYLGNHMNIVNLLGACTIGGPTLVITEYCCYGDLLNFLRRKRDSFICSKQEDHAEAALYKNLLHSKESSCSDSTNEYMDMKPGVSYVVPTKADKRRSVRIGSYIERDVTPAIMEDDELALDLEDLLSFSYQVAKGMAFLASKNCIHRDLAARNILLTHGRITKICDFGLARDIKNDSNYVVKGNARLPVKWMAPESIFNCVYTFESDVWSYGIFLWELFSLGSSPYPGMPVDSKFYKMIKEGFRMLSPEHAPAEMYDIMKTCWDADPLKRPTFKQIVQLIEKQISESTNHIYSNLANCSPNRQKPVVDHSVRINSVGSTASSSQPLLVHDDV

remaining binding at 10 µM [1]: 1% | remaining binding at 10 µM (AURKC): 0.7% | remaining binding at 10 µM (DRAK2): 0.75% | remaining binding at 10 µM (EPHB6): 0.65% | remaining binding at 10 µM (KIT(V559D)): 0.4% | remaining binding at 10 µM (RIPK1): 0.2%
SMILES: Oc1ccc(-c2cc3cccnc3[nH]2)cc1 [compound 2, 4-(1H-pyrrolo[2,3-b]pyridin-2-yl)phenol]
